In the NIST ThermoML archive (doi:10.1021/je700646e) one finds binary diffusion coefficient data, which are given here for three compounds.

The structures appear in SMILES notation.

This series in a line: xn = mol fraction of the nth substance listed. The settings on record: Fluid (supercritical or subcritical phases), Taylor dispersion method, x1 = 0.

In the case of `CCOC(=O)c1ccccc1` [ethyl benzoate] + O=C=O, the binary diffusion coefficient by setting is: (313.16 K, 15000 kPa) 1.05e-08 m2/s; (313.16 K, 20000 kPa) 8.06e-09 m2/s; (313.16 K, 25000 kPa) 7.53e-09 m2/s; (313.16 K, 30000 kPa) 6.82e-09 m2/s; (313.16 K, 35000 kPa) 6.7e-09 m2/s; (323.16 K, 15000 kPa) 1.3e-08 m2/s. The binary diffusion coefficient (323.16 K, 20000 kPa) turned out to be 1.01e-08 m2/s; the binary diffusion coefficient (323.16 K, 25000 kPa) stood at 8.65e-09 m2/s; the binary diffusion coefficient (323.16 K, 30000 kPa) was found to be 7.82e-09 m2/s; the binary diffusion coefficient (323.16 K, 35000 kPa) was 7.25e-09 m2/s; the binary diffusion coefficient (333.16 K, 15000 kPa) is 1.49e-08 m2/s; the binary diffusion coefficient (333.16 K, 20000 kPa) turned out to be 1.19e-08 m2/s. Also, the binary diffusion coefficient is, setting by setting: (333.16 K, 25000 kPa) 9.82e-09 m2/s; (333.16 K, 30000 kPa) 8.78e-09 m2/s; (333.16 K, 35000 kPa) 8.36e-09 m2/s.

Regarding `C=CCc1ccc(O)c(OC)c1` [2-hydroxy-5-allylanisole] + O=C=O, the binary diffusion coefficient runs as follows: (313.16 K, 15000 kPa) 9.29e-09 m2/s; (313.16 K, 20000 kPa) 7.69e-09 m2/s; (313.16 K, 25000 kPa) 6.96e-09 m2/s; (313.16 K, 30000 kPa) 6.37e-09 m2/s; (313.16 K, 35000 kPa) 6.1e-09 m2/s; (323.16 K, 15000 kPa) 1.14e-08 m2/s. Also, the binary diffusion coefficient (323.16 K, 20000 kPa) came out at 9.08e-09 m2/s; the binary diffusion coefficient (323.16 K, 25000 kPa) stood at 8.03e-09 m2/s; the binary diffusion coefficient (323.16 K, 30000 kPa) was 7.39e-09 m2/s; the binary diffusion coefficient (323.16 K, 35000 kPa) is 6.91e-09 m2/s; the binary diffusion coefficient (333.16 K, 15000 kPa) was found to be 1.21e-08 m2/s; the binary diffusion coefficient (333.16 K, 20000 kPa) turned out to be 1.04e-08 m2/s. The binary diffusion coefficient was determined as 9.19e-09 m2/s (333.16 K, 25000 kPa); 8.32e-09 m2/s (333.16 K, 30000 kPa); 7.9e-09 m2/s (333.16 K, 35000 kPa).

For the compound `CC(=O)CCc1ccccc1` [4-phenyl-2-butanone] + O=C=O, the binary diffusion coefficient (313.16 K, 15000 kPa) stood at 8.97e-09 m2/s; the binary diffusion coefficient (313.16 K, 20000 kPa) came to 8.05e-09 m2/s; the binary diffusion coefficient (313.16 K, 25000 kPa) turned out to be 7.39e-09 m2/s; the binary diffusion coefficient (313.16 K, 30000 kPa) was 6.95e-09 m2/s; the binary diffusion coefficient (313.16 K, 35000 kPa) was found to be 6.58e-09 m2/s; the binary diffusion coefficient (323.16 K, 15000 kPa) worked out at 1.06e-08 m2/s. Also, the binary diffusion coefficient came out at 9.25e-09 m2/s (323.16 K, 20000 kPa); 8.65e-09 m2/s (323.16 K, 25000 kPa); 7.83e-09 m2/s (323.16 K, 30000 kPa); 7.5e-09 m2/s (323.16 K, 35000 kPa); 1.15e-08 m2/s (333.16 K, 15000 kPa); 1.08e-08 m2/s (333.16 K, 20000 kPa). For the same compound, the binary diffusion coefficient stood at 9.59e-09 m2/s (333.16 K, 25000 kPa); 8.92e-09 m2/s (333.16 K, 30000 kPa); 8.29e-09 m2/s (333.16 K, 35000 kPa).
